# Data from patent US5449787A, “N,N'-disubstituted amide derivatives” (Kyorin Pharmaceutical Co., Ltd., priority 1992, dated 1995).
# pIC50: −log10 of the molar value. Structures can show the parent of a compound that is named as a salt.
# Tests used:
# [1] = target: T1, 5-HT3 receptor (Rattus norvegicus, UniProt P35563); assay: 5-HT3 receptor-binding assay using [3H]GR65630 (rat cerebral cortex synaptic membrane); parameters: A crude specimen of synaptic membrane was prepared from the cerebral cortex of rat; from tissue; host or cells: rat cerebral cortex, crude synaptic membrane; conditions: [3H]GR65630 0.2-0.3 nM, 50 mM HEPES with Triton X-100, 30 minutes at 23° C., nonspecific: 100 μM metoclopramide
# T1 sequence (P35563 24-483): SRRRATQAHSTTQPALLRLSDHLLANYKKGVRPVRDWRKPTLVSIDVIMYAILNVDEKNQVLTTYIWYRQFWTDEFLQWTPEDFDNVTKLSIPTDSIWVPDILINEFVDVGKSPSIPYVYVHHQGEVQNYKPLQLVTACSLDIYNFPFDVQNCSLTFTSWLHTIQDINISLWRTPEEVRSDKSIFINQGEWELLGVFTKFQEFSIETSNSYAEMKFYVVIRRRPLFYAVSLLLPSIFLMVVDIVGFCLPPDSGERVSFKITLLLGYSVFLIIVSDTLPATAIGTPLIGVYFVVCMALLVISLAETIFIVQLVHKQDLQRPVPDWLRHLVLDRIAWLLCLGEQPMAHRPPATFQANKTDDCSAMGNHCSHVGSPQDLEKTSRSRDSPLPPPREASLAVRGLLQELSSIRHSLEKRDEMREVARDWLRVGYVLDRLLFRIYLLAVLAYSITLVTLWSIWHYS
# Text: (§1) The compound of the present invention has an antagonistic action to 5-HT receptor, in particular, to 5-HT3 receptor. Affinity of the compound of the present invention to 5-HT3 receptor is shown by a receptor-binding assay [refer to Gavin J. Kilpatrick et al, Eur. J. Pharmacol., 159, 157 (1989)] using [^3 H]GR65630 for a tracer legend. Moreover, the antagonistic action to 5-HT3 receptor is shown through inhibition of von Bezold Jarisch reflex caused by intravenously administering 5-HT to rat.
# The specific 5-HT3 receptor-binding assay was performed according to the method by G. J. Kilpatrick et al. using [^3 H] GR 65630 as a tracer ligand.
# A crude specimen of synaptic membrane was prepared from the cerebral cortex of rat and used for experiment by suspending it into 50 mM IIEPES buffer (pl 7.4) added with Triton X-100.
# Next, testing compounds of several kinds of concentration and tritium-labelled GR 65630 (final concentration 0.2-0.3 nM) were added to the suspension of membrane and allowed to react for 30 minutes at 23° C. After the reaction, the reaction mixture was filtered under suction and the filter was washed with 50 mM HEPES buffer. Then, the radioactivity left behind on the filter was determined with a liquid scintillation counter.
# The nonspecific binding was determined in the presence of 100 μM metoclopramide.
# Then, 50% inhibitory concentration (IC50) of the compounds of Examples 10 through 12 was determined graphically (Table 1).
# [2] = target: T1, 5-HT3 receptor; assay: Antagonistic action on von Bezold Jarisch reflex; assay type: in vivo; parameters: Under the anesthetization of rat with urethane/chloralose; from tissue; host or cells: whole anaesthetized rat (in vivo); receptor endogenous, by own knowledge on vagal afferents; conditions: urethane/chloralose-anesthetized rat, 5-HT 1 mg/kg intravenous; dose of test compound not given
# Text: as §1
# The antagonistic action of testing compounds to 5-HT3 was assayed according to the method described in Naunyn-Schmiedeberg's Arch. Pharmacol., vol. 326, 36 (1984).
# Under the anesthetization of rat with urethane/chloralose, the blood pressure was monitored with hemodynamometer frown carotid arteries and the heart rate was monitored from electrocardiogram.
SMILES,pIC50 [1],inhibition of reflex bradycardia caused by intravenous 5-HT (von Bezold Jarisch reflex) [2]
"CCN(C)[C@@H]1CN(C(=O)c2nn(C)c3ccccc23)C[C@@H]1C (relative stereo) [Example 10, Cis-3-(N-ethyl-N-methyl)amino-4-methyl-1-(1-methylind-azol-3-ylcarbonyl)pyrrolidine hydrochloride]",9.00,inhibited the reflex bradycardia
"CCN(C)[C@@H]1CN(C(=O)c2cn(C)c3ccccc23)C[C@@H]1C (relative stereo) [Example 12, Cis-3-(N-ethyl-N-methyl)amino-4-methyl-1-(1-methylindol-3-ylcarbonyl)pyrrolidine hydrochloride]",8.70,inhibited the reflex bradycardia
"CN(C)C1CCN(C(=O)c2nn(C)c3ccccc23)C1 (centres unmarked) [Example 11, 3-Dimethylamino-(1-methylindazol-3-ylcarbonyl)pyrrolidine hydrochloride]",8.52,–
